Consider seven compounds from ChEMBL document CHEMBL1201862, “PubChem BioAssay data set” (2004).

A short description of assay [1]: activation of miR-122 Renilla sensor silencing – cell-based, Huh7 psiCHECK-miR122, Renilla luciferase, cherry-picked, dose response (AID 651956).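 Note: huh7 hepatoma cells stably carrying a psiCHECK-2 miR-122 sensor plasmid; renilla luciferase signal reporting endogenous miR-122 activity after 48 h compound exposure.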 Format: functional.
Assay [2] can be described thus: general mammalian cell viability loss – activator set, cherry-pick, cytotoxicity control for miR-122 modulator project, dose response (AID 720690).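 Note: HEK293T human cells scored for general mammalian cytotoxicity.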 It counts as functional, cell-based.
The subject of another assay is Vero. Description: viability loss in Vero cells – cell-based, plate reader, cherry-pick samples, cytotoxicity control, dose response (AID 687020). It counts as functional. The settings on record: Chlorocebus sabaeus.
Assay [3] can be described thus: T. cruzi growth inhibition in host cells, dose response, cell-based, plate reader, dry powder, set 2 (AID 652275). It counts as functional.
For another assay, the target named is Fatty acid synthase (Homo sapiens, UniProt P49327). Description: inhibition of human FAS-TE enzyme activity – biochemical, endpoint fluorescence intensity, powder samples, SAR follow-up (AID 652164). It counts as functional.
Fatty acid synthase, sequence (P49327 whole entry): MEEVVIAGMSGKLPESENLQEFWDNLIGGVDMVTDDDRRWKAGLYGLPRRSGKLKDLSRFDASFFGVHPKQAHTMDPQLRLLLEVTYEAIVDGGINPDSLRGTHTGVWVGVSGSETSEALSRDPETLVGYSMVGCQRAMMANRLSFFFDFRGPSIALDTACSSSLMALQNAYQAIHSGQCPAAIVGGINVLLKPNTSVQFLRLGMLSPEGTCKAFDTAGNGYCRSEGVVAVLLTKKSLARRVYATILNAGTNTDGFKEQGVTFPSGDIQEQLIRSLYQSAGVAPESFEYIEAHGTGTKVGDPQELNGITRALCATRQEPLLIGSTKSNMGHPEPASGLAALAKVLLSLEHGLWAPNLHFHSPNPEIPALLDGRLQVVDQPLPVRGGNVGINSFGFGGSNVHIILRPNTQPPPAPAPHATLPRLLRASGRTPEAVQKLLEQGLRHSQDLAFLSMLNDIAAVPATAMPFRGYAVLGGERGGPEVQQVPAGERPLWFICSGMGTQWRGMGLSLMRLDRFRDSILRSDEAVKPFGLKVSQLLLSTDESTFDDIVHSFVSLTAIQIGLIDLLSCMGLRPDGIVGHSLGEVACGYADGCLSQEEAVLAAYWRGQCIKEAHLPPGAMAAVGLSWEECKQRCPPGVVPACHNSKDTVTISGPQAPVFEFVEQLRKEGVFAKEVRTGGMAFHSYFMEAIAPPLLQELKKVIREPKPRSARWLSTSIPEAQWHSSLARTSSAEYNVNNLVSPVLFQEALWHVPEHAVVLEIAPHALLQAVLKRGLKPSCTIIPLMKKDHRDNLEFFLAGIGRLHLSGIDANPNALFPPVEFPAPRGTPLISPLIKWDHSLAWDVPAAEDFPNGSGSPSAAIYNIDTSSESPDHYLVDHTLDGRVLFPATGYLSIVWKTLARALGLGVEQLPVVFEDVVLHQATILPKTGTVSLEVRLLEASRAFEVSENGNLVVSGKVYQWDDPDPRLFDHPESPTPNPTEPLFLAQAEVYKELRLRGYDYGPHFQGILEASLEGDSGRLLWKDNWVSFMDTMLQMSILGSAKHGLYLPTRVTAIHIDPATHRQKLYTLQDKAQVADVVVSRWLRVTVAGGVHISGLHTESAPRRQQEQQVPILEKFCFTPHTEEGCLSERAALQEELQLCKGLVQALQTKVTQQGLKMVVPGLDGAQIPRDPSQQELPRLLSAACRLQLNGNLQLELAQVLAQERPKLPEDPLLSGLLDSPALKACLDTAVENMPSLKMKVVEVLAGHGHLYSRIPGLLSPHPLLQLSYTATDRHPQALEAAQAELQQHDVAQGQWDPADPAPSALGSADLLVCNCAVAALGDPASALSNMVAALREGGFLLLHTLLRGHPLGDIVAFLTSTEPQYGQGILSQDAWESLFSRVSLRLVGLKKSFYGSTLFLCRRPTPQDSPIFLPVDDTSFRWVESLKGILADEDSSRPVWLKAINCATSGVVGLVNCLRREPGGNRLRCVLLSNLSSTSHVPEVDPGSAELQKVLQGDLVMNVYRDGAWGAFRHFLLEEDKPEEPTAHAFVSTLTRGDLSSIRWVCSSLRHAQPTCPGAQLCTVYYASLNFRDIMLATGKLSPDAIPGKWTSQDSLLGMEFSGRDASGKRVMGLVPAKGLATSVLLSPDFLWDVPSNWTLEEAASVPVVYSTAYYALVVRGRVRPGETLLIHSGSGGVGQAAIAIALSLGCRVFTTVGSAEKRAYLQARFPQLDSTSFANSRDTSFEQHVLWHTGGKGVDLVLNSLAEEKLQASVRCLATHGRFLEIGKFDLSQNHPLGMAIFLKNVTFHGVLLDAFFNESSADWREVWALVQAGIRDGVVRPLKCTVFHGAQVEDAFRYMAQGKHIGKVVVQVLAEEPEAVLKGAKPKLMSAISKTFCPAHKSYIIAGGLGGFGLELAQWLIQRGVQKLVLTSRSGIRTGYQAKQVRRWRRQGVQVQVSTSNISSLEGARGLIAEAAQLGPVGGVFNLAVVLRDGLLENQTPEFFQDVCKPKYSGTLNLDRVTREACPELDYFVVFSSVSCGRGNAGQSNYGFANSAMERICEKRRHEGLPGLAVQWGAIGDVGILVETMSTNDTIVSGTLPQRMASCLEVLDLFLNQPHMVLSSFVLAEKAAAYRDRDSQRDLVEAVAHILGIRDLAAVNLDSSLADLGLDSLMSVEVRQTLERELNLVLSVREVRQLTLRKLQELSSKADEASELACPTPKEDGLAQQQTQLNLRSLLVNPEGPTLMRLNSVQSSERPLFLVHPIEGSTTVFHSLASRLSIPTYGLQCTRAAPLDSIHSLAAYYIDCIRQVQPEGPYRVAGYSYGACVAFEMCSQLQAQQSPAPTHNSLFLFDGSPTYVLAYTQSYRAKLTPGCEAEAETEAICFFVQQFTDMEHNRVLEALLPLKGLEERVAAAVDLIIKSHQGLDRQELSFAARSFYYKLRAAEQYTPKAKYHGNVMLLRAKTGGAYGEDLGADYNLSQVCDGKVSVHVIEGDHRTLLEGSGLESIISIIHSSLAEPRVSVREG
For assay [4], the target named is T1, High affinity choline transporter 1 (Homo sapiens, UniProt Q9GZV3).
T1 sequence (Q9GZV3 whole entry): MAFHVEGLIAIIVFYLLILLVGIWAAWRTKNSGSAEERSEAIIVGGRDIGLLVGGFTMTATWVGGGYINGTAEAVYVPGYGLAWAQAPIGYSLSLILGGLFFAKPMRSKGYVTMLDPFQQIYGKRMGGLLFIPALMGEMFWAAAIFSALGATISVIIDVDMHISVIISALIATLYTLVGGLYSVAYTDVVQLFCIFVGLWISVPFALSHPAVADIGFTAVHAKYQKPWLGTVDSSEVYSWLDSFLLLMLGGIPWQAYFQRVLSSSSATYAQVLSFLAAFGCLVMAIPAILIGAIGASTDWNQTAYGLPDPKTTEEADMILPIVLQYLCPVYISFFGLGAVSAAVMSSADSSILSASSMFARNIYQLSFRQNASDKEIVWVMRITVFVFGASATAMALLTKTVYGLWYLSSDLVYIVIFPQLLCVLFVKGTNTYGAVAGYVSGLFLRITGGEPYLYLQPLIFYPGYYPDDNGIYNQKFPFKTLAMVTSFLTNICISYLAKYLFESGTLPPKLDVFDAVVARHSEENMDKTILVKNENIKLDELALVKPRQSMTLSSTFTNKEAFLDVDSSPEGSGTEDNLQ
Description: inhibition of SLC5A7-mediated choline transport – cell-based, HEK-293 hCHT, [3H]-choline uptake, dose response (AID 652177). Format: functional.

Assay [5] in a line: anti-trypanosomal activity in BESM host cells – imaging, CA-I/72 strain, bovine embryo skeletal muscle, dry powder, dose response (AID 651885). Format: functional, cell-based.
The target of another assay is Large T antigen (Simian virus 40, UniProt P03070). Format: functional, Betapolyomavirus macacae.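 Note: Confirmatory-stage PubChem screen for compounds that inhibit SV40 T antigen.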
Large T antigen, sequence (P03070 whole entry): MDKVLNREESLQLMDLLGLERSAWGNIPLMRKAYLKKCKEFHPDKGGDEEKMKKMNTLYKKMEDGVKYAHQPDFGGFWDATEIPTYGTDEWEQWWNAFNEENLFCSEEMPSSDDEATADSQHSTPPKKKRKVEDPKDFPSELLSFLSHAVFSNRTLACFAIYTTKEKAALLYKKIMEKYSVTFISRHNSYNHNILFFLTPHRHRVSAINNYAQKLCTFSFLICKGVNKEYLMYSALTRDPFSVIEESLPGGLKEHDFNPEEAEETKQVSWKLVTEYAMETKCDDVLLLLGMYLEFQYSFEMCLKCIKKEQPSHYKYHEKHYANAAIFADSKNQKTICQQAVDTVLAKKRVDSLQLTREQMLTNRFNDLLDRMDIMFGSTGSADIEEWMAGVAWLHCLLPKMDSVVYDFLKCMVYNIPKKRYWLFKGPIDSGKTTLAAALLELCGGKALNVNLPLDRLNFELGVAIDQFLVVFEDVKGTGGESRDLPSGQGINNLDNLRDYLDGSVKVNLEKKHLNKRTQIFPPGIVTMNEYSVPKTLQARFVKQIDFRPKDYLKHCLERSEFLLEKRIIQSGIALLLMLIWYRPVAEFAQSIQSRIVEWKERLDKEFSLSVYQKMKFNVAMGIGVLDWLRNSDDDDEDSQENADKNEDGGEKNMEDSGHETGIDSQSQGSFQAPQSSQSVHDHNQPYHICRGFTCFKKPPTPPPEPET
In assay [6] the target is FAD-linked sulfhydryl oxidase ALR (Homo sapiens, UniProt P55789). Description: ALR-catalysed DTT oxidation blockers – biochemical, H2O2 detection, luminescence, cherry-pick, dose response (AID 493248).
FAD-linked sulfhydryl oxidase ALR, sequence (P55789 whole entry): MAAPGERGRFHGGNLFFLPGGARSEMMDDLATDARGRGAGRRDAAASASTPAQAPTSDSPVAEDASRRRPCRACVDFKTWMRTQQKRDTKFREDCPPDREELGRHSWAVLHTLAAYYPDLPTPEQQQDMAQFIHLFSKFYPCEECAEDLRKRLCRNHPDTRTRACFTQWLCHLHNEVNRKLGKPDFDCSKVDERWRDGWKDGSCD
Another assay concerns the target T2, Protein skinhead-1 (Caenorhabditis elegans, UniProt P34707).
T2 sequence (P34707 whole entry): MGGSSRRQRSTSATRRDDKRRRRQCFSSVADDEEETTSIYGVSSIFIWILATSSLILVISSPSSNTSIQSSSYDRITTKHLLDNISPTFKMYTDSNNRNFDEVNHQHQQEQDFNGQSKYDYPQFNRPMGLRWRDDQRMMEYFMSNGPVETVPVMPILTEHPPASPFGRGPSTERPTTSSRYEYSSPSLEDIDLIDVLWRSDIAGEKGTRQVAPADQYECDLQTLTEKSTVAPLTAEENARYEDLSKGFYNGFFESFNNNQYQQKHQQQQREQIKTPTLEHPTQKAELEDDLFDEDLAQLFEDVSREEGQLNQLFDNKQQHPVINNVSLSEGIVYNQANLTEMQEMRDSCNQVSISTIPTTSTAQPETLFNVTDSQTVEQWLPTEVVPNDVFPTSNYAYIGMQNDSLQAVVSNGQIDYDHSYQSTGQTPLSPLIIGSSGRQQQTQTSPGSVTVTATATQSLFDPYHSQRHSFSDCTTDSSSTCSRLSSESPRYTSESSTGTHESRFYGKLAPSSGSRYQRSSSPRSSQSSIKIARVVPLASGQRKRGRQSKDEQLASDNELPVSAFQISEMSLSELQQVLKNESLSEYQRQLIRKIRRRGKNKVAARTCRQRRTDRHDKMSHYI
Format: functional.

Another assay concerns the target Mu-type opioid receptor (Homo sapiens, UniProt P35372). Format: functional, cell-based.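 Note: U2OS cells with beta-arrestin recruitment to OPRM1 by beta-gal complementation.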
Assay [7] deals with 5-hydroxytryptamine receptor 2A (Mus musculus, UniProt P35363). It counts as functional, cell-based.
5-hydroxytryptamine receptor 2A, sequence (P35363 whole entry): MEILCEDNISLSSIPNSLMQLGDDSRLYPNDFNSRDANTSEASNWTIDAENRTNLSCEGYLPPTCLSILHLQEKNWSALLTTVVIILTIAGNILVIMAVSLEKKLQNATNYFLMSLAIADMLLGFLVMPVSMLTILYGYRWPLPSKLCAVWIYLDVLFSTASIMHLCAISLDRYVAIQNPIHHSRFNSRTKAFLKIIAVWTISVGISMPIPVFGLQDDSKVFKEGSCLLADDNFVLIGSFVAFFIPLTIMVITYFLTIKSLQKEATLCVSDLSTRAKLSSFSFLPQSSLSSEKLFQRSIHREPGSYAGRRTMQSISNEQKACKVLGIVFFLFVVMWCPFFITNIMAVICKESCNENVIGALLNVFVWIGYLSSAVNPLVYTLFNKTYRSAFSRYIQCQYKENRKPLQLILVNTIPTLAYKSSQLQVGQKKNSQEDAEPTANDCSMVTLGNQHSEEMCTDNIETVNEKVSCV
The next assay addresses Galanin receptor type 3 (Homo sapiens, UniProt O60755). Description: Fluorescence-based cell-based primary high throughput dose response assay to identify antagonists of the Galanin Receptor 3 (GalR3). It counts as functional.
In assay [8] the target is T3, Trace amine-associated receptor 1 (Homo sapiens, UniProt Q96RJ0).
T3 sequence (Q96RJ0 whole entry): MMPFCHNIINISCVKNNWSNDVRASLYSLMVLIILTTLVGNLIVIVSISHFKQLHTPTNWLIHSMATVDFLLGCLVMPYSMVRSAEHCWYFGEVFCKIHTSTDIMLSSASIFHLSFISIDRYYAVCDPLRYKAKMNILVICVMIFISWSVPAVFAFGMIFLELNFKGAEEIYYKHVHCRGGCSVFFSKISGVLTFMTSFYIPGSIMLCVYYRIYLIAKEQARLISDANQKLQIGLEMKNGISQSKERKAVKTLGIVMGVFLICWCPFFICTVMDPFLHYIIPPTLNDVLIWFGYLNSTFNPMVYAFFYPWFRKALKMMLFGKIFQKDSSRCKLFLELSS
Description: Fluorescence-based cell-based high throughput dose response assay to identify agonists of the human trace amine associated receptor 1 (TAAR1). It counts as functional.

Assay [9] addresses T3, Trace amine-associated receptor 1. Description: Counterscreen for agonists of the human trace amine associated receptor 1 (hTAAR1): Fluorescence-based cell-based high throughput dose response assay to identify hTAAR1 agonist that also desensitize TAAR1 receptor response. Format: functional.

Molecules are shown by their SMILES. The source made the active and inactive calls.

Mu-type opioid receptor, sequence (P35372 whole entry): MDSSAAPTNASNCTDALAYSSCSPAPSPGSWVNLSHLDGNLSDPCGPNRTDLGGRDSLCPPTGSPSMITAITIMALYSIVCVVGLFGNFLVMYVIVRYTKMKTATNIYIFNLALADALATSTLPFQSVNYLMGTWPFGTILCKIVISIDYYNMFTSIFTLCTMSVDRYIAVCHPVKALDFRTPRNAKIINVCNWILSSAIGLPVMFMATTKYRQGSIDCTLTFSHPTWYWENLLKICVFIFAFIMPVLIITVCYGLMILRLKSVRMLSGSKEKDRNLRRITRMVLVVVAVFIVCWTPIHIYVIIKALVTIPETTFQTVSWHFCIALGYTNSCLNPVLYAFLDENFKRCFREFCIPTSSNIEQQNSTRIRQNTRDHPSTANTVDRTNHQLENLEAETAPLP
Galanin receptor type 3, sequence (O60755 whole entry): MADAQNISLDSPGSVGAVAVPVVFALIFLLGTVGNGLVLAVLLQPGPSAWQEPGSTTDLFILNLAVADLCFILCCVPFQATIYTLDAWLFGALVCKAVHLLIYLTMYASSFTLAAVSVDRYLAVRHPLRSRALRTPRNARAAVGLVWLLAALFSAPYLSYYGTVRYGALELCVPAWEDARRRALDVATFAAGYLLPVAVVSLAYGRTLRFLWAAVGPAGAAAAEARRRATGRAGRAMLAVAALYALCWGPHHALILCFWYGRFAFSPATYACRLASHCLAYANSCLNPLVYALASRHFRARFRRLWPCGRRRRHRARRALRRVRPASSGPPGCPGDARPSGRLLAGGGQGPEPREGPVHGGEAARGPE

On to `C[C@H](NC(=O)C[C@H]1CC[C@@H]2[C@@H](COc3ccc(NS(=O)(=O)c4ccc(Cl)cc4)cc3C(=O)N2C)O1)c1ccccc1`, for which the results for the AC50 in assay [1] and in assay [2] were 18.2 µM (active) and 29.5 µM (active), respectively.
For `O=C(NCCN1CCC2(CC1)C(=O)NCN2c1ccccc1)c1ccccc1F`, the AC50 in the assay with Vero was 31.5 µM (active).
Take `CC(C)N1C[C@@H](CN(C)Cc2ccc(Cl)cc2)Oc2c(NC(=O)c3ccnn3C)cccc2C1=O`: the AC50 in assay [3] is 0.334 µM (active).
As to `CCCCC(=O)Nc1nc(-c2ccc(C(=O)N3CCOCC3)cc2)cs1`, on Fatty acid synthase, the IC50 was 35.3 µM (inactive).
For `COc1ccc(C(=O)NCc2cc(C)n(C)n2)cc1OC1CCN(C(C)C)CC1`, the half-inhibitory concentration (IC50) in assay [4] was 65.5 µM (inconclusive).
`CC(C)N1C[C@H](C)[C@@H](CN(C)C(=O)OC(C)(C)C)Oc2c(NC(=O)c3ccncc3)cccc2C1=O`: the IC50 in assay [5] is > 20 µM (inactive).
For `Oc1cc2c(c(Cl)c1O)CCNCC2c1ccccc1` (stereo not given), the IC50 was > 100 µM (active) at Large T antigen, > 100 µM (inactive) at Protein skinhead-1, 3.83 µM (active) at Galanin receptor type 3 and > 29.9 µM (inactive) in assay [9]. The AC50 in assay [6] was 3.83 µM (active). The values for the EC50 (at Mu-type opioid receptor; in assay [7]; in [8]) were 92.5 µM (inactive), 8.14 µM (active) and 6.54 µM (active), respectively.
